Reference: article PMC7971191 (Journal of medicinal chemistry, 2020)

Columns and labels:
wild-type HIV-1 protease = wild-type HIV-1 protease (Human immunodeficiency virus type 1 group M subtype B, UniProt P12497, Q495K); format: biochemical, HIV-1 (NL4-3 strain); settings: for fold less active than the corresponding tert-leucine analogue: 12b vs 12a, 15b vs 15a, inhibitory potency
[1] = tested on: wild-type HIV-1 (NL4-3 strain); assay: Cell-based antiviral assay; settings: for fold less active than 12a in antiviral assays: compared with 12a
HIV-1 protease I50V/A71V = HIV-1 protease I50V/A71V (Human immunodeficiency virus type 1 group M subtype B, UniProt P12497, A559V/I538V/Q495K); format: biochemical, HIV-1 (NL4-3 strain); settings: Ki compared with 12a

COC(=O)NC1(C(=O)N[C@@H](Cc2ccccc2)C[C@H](O)[C@H](Cc2ccccc2)NC(=O)O[C@H]2CO[C@H]3OCC[C@H]32)CCCC1 [Compound 15b, (3R,3aS,6aR)-Hexahydrofuro[2,3-b]furan-3-yl ((2S,3S,5S)-3-hydroxy-5-(1-((methoxycarbonyl)amino)cyclopentane-1-carboxamido)-1,6-diphenylhexan-2-yl)carbamate]
fold less active than the corresponding tert-leucine analogue (wild-type HIV-1 protease): 560 fold

COC(=O)N[C@H](C(=O)N[C@@H](Cc1ccccc1)[C@@H](O)C[C@H](Cc1ccccc1)NC(=O)O[C@H]1CO[C@H]2OCC[C@H]21)C(C)(C)C [Compound 12a, (3R,3aS,6aR)-Hexahydrofuro[2,3-b]furan-3-yl ((2S,4S,5S)-4-hydroxy-5-((S)-2-((methoxycarbonyl)amino)-3,3-dimethylbutanamido)-1,6-diphenylhexan-2-yl)carbamate]
fold more potent than 15a in antiviral assays ([1]; wild-type HIV-1, compared with 15a): 3 fold

COC(=O)N[C@H](C(=O)N[C@@H](Cc1ccccc1)C[C@H](O)[C@H](Cc1ccccc1)NC(=O)O[C@H]1CO[C@H]2OCC[C@H]21)C(C)(C)C [Compound 15a, (3R,3aS,6aR)-Hexahydrofuro[2,3-b]furan-3-yl ((2S,3S,5S)-3-hydroxy-5-((S)-2-((methoxycarbonyl)amino)-3,3-dimethylbutanamido)-1,6-diphenylhexan-2-yl)carbamate]
fold more active than 12a against the I50V/A71V variant (HIV-1 protease I50V/A71V): 4 fold

Cc1cccc(C)c1OCC(=O)N[C@@H](Cc1ccccc1)C[C@H](O)[C@H](Cc1ccccc1)NC(=O)O[C@H]1CO[C@H]2OCC[C@H]21 [Compound 5, reference compound]
fold better antiviral potency than 4 ([1]; compared with compound 4): 2 fold

COC(=O)N[C@H](C(=O)N[C@@H](Cc1ccccc1)[C@@H](O)C[C@H](Cc1ccccc1)NC(=O)O[C@H]1CO[C@H]2OCC[C@H]21)C(C)C [Compound 12e, (3R,3aS,6aR)-Hexahydrofuro[2,3-b]furan-3-yl ((2S,4S,5S)-4-hydroxy-5-((S)-2-((methoxycarbonyl)amino)-3-methylbutanamido)-1,6-diphenylhexan-2-yl)carbamate]
fold less active against wild-type protease (wild-type HIV-1 protease; valine analogue compared with alanine analogue 12d / 12a): 4 fold
fold less active than 12a in antiviral assays [1]: 5 fold

COC(=O)NC1(C(=O)N[C@@H](Cc2ccccc2)[C@@H](O)C[C@H](Cc2ccccc2)NC(=O)O[C@H]2CO[C@H]3OCC[C@H]32)CCCC1 [Compound 12b, (3R,3aS,6aR)-Hexahydrofuro[2,3-b]furan-3-yl ((2S,4S,5S)-4-hydroxy-5-(1-((methoxycarbonyl)amino)cyclopentane-1-carboxamido)-1,6-diphenylhexan-2-yl)carbamate]
fold less active than the corresponding tert-leucine analogue (wild-type HIV-1 protease): > 2500 fold

COC(=O)N[C@@H](C)C(=O)N[C@@H](Cc1ccccc1)[C@@H](O)C[C@H](Cc1ccccc1)NC(=O)O[C@H]1CO[C@H]2OCC[C@H]21 [Compound 12d, (3R,3aS,6aR)-Hexahydrofuro[2,3-b]furan-3-yl ((2S,4S,5S)-4-hydroxy-5-((S)-2-((methoxycarbonyl)amino)propanamido)-1,6-diphenylhexan-2-yl)carbamate]
fold less active than 12a in antiviral assays [1]: 6 fold
